Here are results for 25 compounds from patent US9212186B2, “Bicyclic pyrazole LRRK2 small molecule inhibitors” (Genentech, Inc., priority 2012, dated 2015).

SMILES strings stand for the structures.

Chain of LRRK2 G2019S (Q5S007 whole entry G2019S): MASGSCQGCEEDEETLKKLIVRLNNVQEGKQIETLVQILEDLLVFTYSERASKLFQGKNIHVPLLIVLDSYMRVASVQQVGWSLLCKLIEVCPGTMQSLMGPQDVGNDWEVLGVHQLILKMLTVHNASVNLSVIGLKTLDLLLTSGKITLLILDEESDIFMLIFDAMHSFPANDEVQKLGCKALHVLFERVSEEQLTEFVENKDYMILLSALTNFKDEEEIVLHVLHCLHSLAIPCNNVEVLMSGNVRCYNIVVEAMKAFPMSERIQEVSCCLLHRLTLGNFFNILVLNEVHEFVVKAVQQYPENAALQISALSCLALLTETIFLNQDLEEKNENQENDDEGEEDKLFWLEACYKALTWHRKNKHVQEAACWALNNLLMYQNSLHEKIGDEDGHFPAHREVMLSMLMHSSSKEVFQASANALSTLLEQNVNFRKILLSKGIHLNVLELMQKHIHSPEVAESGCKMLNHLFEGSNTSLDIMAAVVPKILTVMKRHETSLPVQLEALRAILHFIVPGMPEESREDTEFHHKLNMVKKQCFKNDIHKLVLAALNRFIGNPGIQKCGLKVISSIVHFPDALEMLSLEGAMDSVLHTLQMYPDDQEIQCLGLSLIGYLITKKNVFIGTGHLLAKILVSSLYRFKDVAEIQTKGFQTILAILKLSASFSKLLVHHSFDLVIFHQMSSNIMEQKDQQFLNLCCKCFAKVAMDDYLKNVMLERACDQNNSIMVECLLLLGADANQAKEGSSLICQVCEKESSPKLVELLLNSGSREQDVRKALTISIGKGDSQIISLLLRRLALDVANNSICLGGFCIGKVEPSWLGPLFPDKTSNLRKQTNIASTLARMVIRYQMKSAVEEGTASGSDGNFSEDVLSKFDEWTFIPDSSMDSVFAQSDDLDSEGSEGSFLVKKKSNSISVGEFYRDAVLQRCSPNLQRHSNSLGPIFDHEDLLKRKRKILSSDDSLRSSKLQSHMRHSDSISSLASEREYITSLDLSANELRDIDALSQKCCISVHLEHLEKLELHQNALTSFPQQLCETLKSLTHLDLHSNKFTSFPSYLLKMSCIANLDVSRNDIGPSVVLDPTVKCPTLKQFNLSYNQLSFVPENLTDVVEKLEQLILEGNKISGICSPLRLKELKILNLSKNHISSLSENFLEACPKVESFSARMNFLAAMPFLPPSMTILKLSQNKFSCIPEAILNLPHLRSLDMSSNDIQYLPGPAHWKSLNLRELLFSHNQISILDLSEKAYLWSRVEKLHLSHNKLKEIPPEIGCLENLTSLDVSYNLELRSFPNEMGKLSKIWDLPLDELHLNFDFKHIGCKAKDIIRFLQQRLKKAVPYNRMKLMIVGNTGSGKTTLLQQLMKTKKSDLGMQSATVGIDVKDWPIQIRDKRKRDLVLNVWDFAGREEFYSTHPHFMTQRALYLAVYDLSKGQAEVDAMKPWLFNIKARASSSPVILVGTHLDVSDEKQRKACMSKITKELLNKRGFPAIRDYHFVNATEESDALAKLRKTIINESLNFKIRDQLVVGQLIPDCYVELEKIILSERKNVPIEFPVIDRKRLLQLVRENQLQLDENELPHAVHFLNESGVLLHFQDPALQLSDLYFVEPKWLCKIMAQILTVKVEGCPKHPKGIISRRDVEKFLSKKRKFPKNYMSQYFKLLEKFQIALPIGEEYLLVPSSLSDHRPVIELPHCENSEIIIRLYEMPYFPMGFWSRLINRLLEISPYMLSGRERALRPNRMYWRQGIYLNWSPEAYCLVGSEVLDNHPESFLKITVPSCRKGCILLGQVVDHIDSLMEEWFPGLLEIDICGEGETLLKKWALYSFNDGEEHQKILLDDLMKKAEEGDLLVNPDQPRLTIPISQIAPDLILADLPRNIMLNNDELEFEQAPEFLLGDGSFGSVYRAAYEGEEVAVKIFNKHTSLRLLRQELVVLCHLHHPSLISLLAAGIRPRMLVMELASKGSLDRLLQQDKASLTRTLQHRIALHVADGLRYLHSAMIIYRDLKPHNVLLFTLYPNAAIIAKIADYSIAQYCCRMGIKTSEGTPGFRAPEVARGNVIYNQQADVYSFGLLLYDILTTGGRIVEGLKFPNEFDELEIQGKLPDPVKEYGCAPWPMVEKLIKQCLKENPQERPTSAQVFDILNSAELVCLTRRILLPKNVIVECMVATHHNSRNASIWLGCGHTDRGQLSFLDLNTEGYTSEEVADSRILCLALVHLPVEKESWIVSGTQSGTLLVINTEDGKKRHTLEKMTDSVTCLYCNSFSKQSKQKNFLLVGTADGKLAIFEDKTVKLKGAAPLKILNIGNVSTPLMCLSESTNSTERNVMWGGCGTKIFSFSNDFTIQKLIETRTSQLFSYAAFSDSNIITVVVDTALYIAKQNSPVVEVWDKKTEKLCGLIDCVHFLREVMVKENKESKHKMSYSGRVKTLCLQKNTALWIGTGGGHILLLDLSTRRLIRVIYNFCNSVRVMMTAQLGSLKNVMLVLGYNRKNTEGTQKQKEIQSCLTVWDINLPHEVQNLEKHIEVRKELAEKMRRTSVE

In the assay the target is LRRK2 G2019S (Homo sapiens (Human), UniProt Q5S007, G2019S). The assay is described as follows: In Vitro LRRK2 Lanthascreen Binding Assay. How it is done:
In Vitro LRRK2 Lanthascreen Binding Assay
This assay was used to determine a compound's potency in inhibiting activity of LRRK2 by determining, Kiapp, IC50, or percent inhibition values. In 384 well proxiplates F black, shallow well plates LRRK2, Eu-anti-GST-antibody, Alexa Fluor® Kinase tracer 236 and test compound were incubated together.
Binding of the Alexa Fluor® “tracer” to a kinase is detected by addition of a Eu-labeled anti-GST antibody. Binding of the tracer and antibody to a kinase results in a high degree of FRET, whereas displacement of the tracer with a kinase inhibitor results in a loss of FRET.
Assay conditions and materials used were as follows:
Final Assay Conditions: • GST-LRRK2 G2019S 10 nM
Eu-anti-GST-antibody 2 nM • Kinase tracer 236 8.5 nM • Kinase reaction time: 1 hour • Temperature: ambient • Total volume: 15 μl • DMSO 1%
384 well proxiplates F black shallow well Perkin Elmer cat #6008260
Eu-labeled anti-GST antibody Invitrogen cat # PV5594
Alexa Fluor® Kinase tracer 236 Invitrogen cat #PV5592 • TRIS-HCl Sigma cat # T3253 • EGTA Sigma cat # E3889 • Brij-35: Sigma cat # B4184 (30% w/v) • DMSO: Sigma cat # D8418 • MgCl2 Sigma cat # M9272
Reaction Buffer: H2O/50 mM Tris, pH 7.4/10 mM MgCl2/1 mM EGTA/0.01% Brij 35
Compound Plate Preparation:
Serially dilute test compounds (10 mM stock) 1:3.16 (20 ul+43.2 ul) in 100% DMSO. 12 pt curve. Dilute each concentration 1:33.3 (3 ul+97 ul) in reaction buffer. Stamp 5 ul to assay plate. Final top test concentration 100 uM
Total and Blank Preparation:
In Reaction Buffer, 5 ul of DMSO (3%) was added to total and blank wells and 5 ul of Eu-labeled anti-GST antibody (6 nM) was added to blank wells. Add 5 ul LRRK2 (30 nM)/Eu-labeled anti-GST antibody (6 nM) mix to compound and total wells.
Add 5 ul kinase tracer (25.5 nM) to all wells. Incubate plates at room temperature for 1 hour on a plate shaker (gentle shaking). Read on Perkin Elmer EnVision reader HTRF protocol
Calculate ratio: (665/620)*10000. Subtract mean background values from all data points. Calculate % of control for each test value. Plot % of control vs Compound concentration. Calculate Ki Value (xlfit curve fitting—Morrison equation). Results expressed as a Ki in μM. Equation for Ki: Y=V0*(1−((x+Ki*(1+S/Km)+Et)/(2*Et)−(((x+Ki*(1+S/Km)+Et)^2−(4*Et*x))^0.5)/(2*Et)))
Tracer concentration (S)=8.5 nM
The compound `CNc1nc(Nc2cnn3c2C2(COC2)OCC3)ncc1C(F)(F)F` [Example 27, N^2-(6′7′-dihydrospiro[oxetane-3,4′-pyrazolo[5,1-c][1,4]oxazine]-3-yl)-N^4-methyl-5-(trifluoromethyl)pyrimidine-2,4-diamine] registered an inhibitory constant (Ki) of 0.819 µM.
`CNc1nc(Nc2cnn3c2C(C)OCC3)ncc1C(F)(F)F` (single isomer, unassigned) [Example 16, N4-methyl-N2-(4-methyl-6,7-dihydro-4H-pyrazolo[5,1-c][1,4]oxazin-3-yl)-5-(trifluoromethyl)pyrimidine-2,4-diamine] had an inhibition constant Ki of 0.003 µM. This Ki lies about 270-fold lower than the previous one.
`CNc1nc(Nc2cnn3c2CCC3)ncc1C(F)(F)F` [Example 24, N2-(5,6-dihydro-4H-pyrrolo[1,2-b]pyrazol-3-yl)-N4-methyl-5-(trifluoromethyl)pyrimidine-2,4-diamine] came in with a Ki of 0.0006 µM.
`CNc1nc(Nc2cnn3c2CN(C)CC3)ncc1C(F)(F)F` [Example 26, N^4-methyl-N^2-(5-methyl-4,5,6,7-tetrahydropyrazolo[1,5-a]pyrazin-3-yl)-5-(trifluoromethyl)pyrimidine-2,4-diamine]: the inhibitory constant (Ki) was determined as 0.0335 µM.
In turn, `C[C@H]1c2c(Nc3ncc(C(F)(F)F)c(NC4CC4)n3)cnn2CCN1C` [Example 9, (S)-N4-cyclopropyl-N2-(4,5-dimethyl-4,5,6,7-tetrahydropyrazolo[1,5-a]pyrazin-3-yl)-5-(trifluoromethyl)pyrimidine-2,4-diamine] came in with a Ki of 0.0049 µM.
As for `CCNc1nc(Nc2cnn3c2C(C)OCC3)ncc1C(F)(F)F` (stereo not shown) [Example 13, N4-ethyl-N2-(4-methyl-6,7-dihydro-4H-pyrazolo[5,1-c][1,4]oxazin-3-yl)-5-(trifluoromethyl)pyrimidine-2,4-diamine], the Ki is 0.0477 µM.
In turn, `CNc1nc(Nc2cnn3c2C(C)OC(C)C3)ncc1C(F)(F)F` (single isomer, unassigned) [Example 21, N2-(4,6-dimethyl-6,7-dihydro-4H-pyrazolo[5,1-c][1,4]oxazin-3-yl)-N4-methyl-5-(trifluoromethyl)pyrimidine-2,4-diamine] gave a Ki of 0.39 µM. Compared with the last compound, the Ki is about 8.2-fold higher.
Regarding `CNc1nc(Nc2cnn3c2C(C)OC(C)C3)ncc1C(F)(F)F` (single isomer, unassigned) [Example 19, N2-(4,6-dimethyl-6,7-dihydro-4H-pyrazolo[5,1-c][1,4]oxazin-3-yl)-N4-methyl-5-(trifluoromethyl)pyrimidine-2,4-diamine], the inhibitory constant (Ki) was found to be 0.0613 µM.
Take `CCNc1nc(Nc2cnn3c2[C@@H](C)N(C)CC3)ncc1C(F)(F)F` [Example 8, (R)-N2-(4,5-dimethyl-4,5,6,7-tetrahydropyrazolo[1,5-a]pyrazin-3-yl)-N4-ethyl-5-(trifluoromethyl)pyrimidine-2,4-diamine]: the Ki was 0.144 µM. Compared with the last compound, the Ki is about 2.3-fold higher.
On to `CNc1nc(Nc2cnn3c2N(C)CC3)ncc1C(F)(F)F` [Example 25, N4-methyl-N2-(1-methyl-2,3-dihydro-1H-imidazo[1,2-b]pyrazol-7-yl)-5-(trifluoromethyl)pyrimidine-2,4-diamine], for which the affinity, expressed as Ki, was 0.0312 µM.
With `CNc1nc(Nc2cnn3c2CCCC3)ncc1C(F)(F)F` [Example 3, N4-methyl-N2-(4,5,6,7-tetrahydropyrazolo[1,5-a]pyridin-3-yl)-5-(trifluoromethyl)pyrimidine-2,4-diamine], the affinity corresponds to a Ki of 0.0075 µM.
Then `CNc1nc(Nc2cnn3c2C(C)OCC3)ncc1C(F)(F)F` (stereo not shown) [Example 15, N4-methyl-N2-(4-methyl-6,7-dihydro-4H-pyrazolo[5,1-c][1,4]oxazin-3-yl)-5-(trifluoromethyl)pyrimidine-2,4-diamine], with 0.279 µM.
`CNc1nc(Nc2cnn3c2C(C)OCC3(C)C)ncc1C(F)(F)F` (single isomer, unassigned) [Example 12, N4-methyl-5-(trifluoromethyl)-N2-(4,7,7-trimethyl-6,7-dihydro-4H-pyrazolo[5,1-c][1,4]oxazin-3-yl)pyrimidine-2,4-diamine] returned a Ki of 0.0026 µM.
For the compound `CCNc1nc(Nc2cnn3c2COC(C)(C)C3)ncc1C(F)(F)F` [Example 23, N2-(6,6-dimethyl-6,7-dihydro-4H-pyrazolo[5,1-c][1,4]oxazin-3-yl)-N4-ethyl-5-(trifluoromethyl)pyrimidine-2,4-diamine], the Ki was 0.0003 µM.
Then `CNc1nc(Nc2cnn3c2COC(C)(C)C3)ncc1C(F)(F)F` [Example 22, N2-(6,6-dimethyl-6,7-dihydro-4H-pyrazolo[5,1-c][1,4]oxazin-3-yl)-N4-methyl-5-(trifluoromethyl)pyrimidine-2,4-diamine], with 0.0009 µM.
Compound `CNc1nc(Nc2cc3n(n2)CCOC3)ncc1C(F)(F)F` [Example 30, N^2-(6,7-dihydro-4H-pyrazolo[5,1-c][1,4]oxazin-2-yl)-N^4-methyl-5-(trifluoromethyl)pyrimidine-2,4-diamine] had an inhibition constant (Ki) of 0.0109 µM.
In the case of `CNc1nc(Nc2cnn3c2[C@H](C)N(C)CC3)ncc1C(F)(F)F` [Example 5, (S)-N2-(4,5-dimethyl-4,5,6,7-tetrahydropyrazolo[1,5-a]pyrazin-3-yl)-N4-methyl-5-(trifluoromethyl)pyrimidine-2,4-diamine], the inhibitory constant (Ki) came out at 0.02 µM.
`C[C@@H]1c2c(Nc3ncc(C(F)(F)F)c(NC4CC4)n3)cnn2CCN1C` [Example 10, (R)-N4-cyclopropyl-N2-(4,5-dimethyl-4,5,6,7-tetrahydropyrazolo[1,5-a]pyrazin-3-yl)-5-(trifluoromethyl)pyrimidine-2,4-diamine]: the Ki amounted to 0.0444 µM. Against the preceding compound, the Ki is about 2.2-fold higher.
`CNc1nc(Nc2cnn3c2C(C)OCC3(C)C)ncc1C(F)(F)F` (stereo not shown) [Example 11, N4-methyl-5-(trifluoromethyl)-N2-(4,7,7-trimethyl-6,7-dihydro-4H-pyrazolo[5,1-c][1,4]oxazin-3-yl)pyrimidine-2,4-diamine] had a Ki of 0.212 µM.
On to `CCNc1nc(Nc2cnn3c2C(C)OCC3)ncc1C(F)(F)F` (single isomer, unassigned) [Example 14, N4-ethyl-N2-(4-methyl-6,7-dihydro-4H-pyrazolo[5,1-c][1,4]oxazin-3-yl)-5-(trifluoromethyl)pyrimidine-2,4-diamine], for which the Ki turned out to be 0.0012 µM.
`CNc1nc(Nc2cnn3c2C(C)OC(C)C3)ncc1C(F)(F)F` (single isomer, unassigned) [Example 20, N2-(4,6-dimethyl-6,7-dihydro-4H-pyrazolo[5,1-c][1,4]oxazin-3-yl)-N4-methyl-5-(trifluoromethyl)pyrimidine-2,4-diamine] gave a Ki of 0.0057 µM. This Ki lies about 4.8-fold higher than the previous one.
On to `CNc1nc(Nc2cnn3c2[C@@H](C)N(C)CC3)ncc1C(F)(F)F` [Example 6, (R)-N2-(4,5-dimethyl-4,5,6,7-tetrahydropyrazolo[1,5-a]pyrazin-3-yl)-N4-methyl-5-(trifluoromethyl)pyrimidine-2,4-diamine], for which the affinity, expressed as Ki, was 0.184 µM.
For `CCNc1nc(Nc2cnn3c2[C@H](C)N(C)CC3)ncc1C(F)(F)F` [Example 7, (S)-N2-(4,5-dimethyl-4,5,6,7-tetrahydropyrazolo[1,5-a]pyrazin-3-yl)-N4-ethyl-5-(trifluoromethyl)pyrimidine-2,4-diamine] the value was 0.0095 µM; for `CNc1nc(Nc2cnn3c2COCC3)ncc1C(F)(F)F` [Example 17, N2-(6,7-dihydro-4H-pyrazolo[5,1-c][1,4]oxazin-3-yl)-N4-methyl-5-(trifluoromethyl)pyrimidine-2,4-diamine], 0.0023 µM; for `CNc1nc(Nc2cnn3c2C(C)OC(C)C3)ncc1C(F)(F)F` (stereo not shown) [Example 18, N2-(4,6-dimethyl-6,7-dihydro-4H-pyrazolo[5,1-c][1,4]oxazin-3-yl)-N4-methyl-5-(trifluoromethyl)pyrimidine-2,4-diamine], 0.0018 µM.
